The results in this text go back to patent publication US10927141B2 (priority 2018, dated 2021).

Each structure is given as a SMILES string. “And” between values parts separate entries of the source, which are not always exact repeats. Equal values may be shown once. Read-outs that look alike come from different tables or passages of the source.

Data set [1] can be described thus: Dynamic vapor sorption (DVS), gravimetric moisture sorption. The settings on record: at 80% Relative Humidity, 25° C. It is filed as physicochemical. The protocol:
Dynamic Vapor Sorption (DVS) were collected conducted using an SMS DVS Advantage 1 system. For each sample analyzed approximately 10 mg of material was transferred into the DVS instrument and recorded the weight change with respect to the atmospheric humidity at 25° C. using the following parameters: Equilibrium dm/dt: 0.01%/min, (for min: 10 min and max: 180 min); drying setting were 0% RH for 120 min; RH (%) measurement step at 10% and RH (%) measurement step scope of 0-90-0%.

Data set [2] is classed as physicochemical. The conditions noted are these: 1 w. The protocol: For each salt, approximately 5 mg compound was added into an 8 mL glass vial with a multi-hole aluminum foil cap, and kept at 60° C., 40° C./75% RH for 1 week. […] Appearance by visual observation were recorded followed by purity assessment and XPRD data collection on the residual solids.
Data set [3] is classed as physicochemical.

In the case of `COCC1(O)CCC2(C)C(CCC3C2CCC2(C)C(C(=O)Cn4ccnc4)CCC32)C1.O=C(O)CC(O)C(=O)O` [Compound 1 L-Malate (Form B)], in data set [1], the gravimetric moisture sorption entry is reported as “about 3.5 % (by weight)”.

As to `COCC1(O)CCC2(C)C(CCC3C2CCC2(C)C(C(=O)Cn4ccnc4)CCC32)C1.O=C(O)c1cc(O)ccc1O` (stereo not drawn) [Compound 1 Gentisate (Form A)], the gravimetric moisture sorption result in data set [1] is listed as “about 3.1 % (by weight)”.

As for `COCC1(O)CCC2(C)C(CCC3C2CCC2(C)C(C(=O)Cn4ccnc4)CCC32)C1.Cl` (stereo not drawn) [Compound 1 Hydrochloride (Form A)], in data set [1], the gravimetric moisture sorption entry is reported as “about 3.6 % (by weight)”.

Take `COCC1(O)CCC2(C)C(CCC3C2CCC2(C)C(C(=O)Cn4ccnc4)CCC32)C1.O=CC(O)C(O)C(O)C(O)C(=O)O` [Compound 1 D-Glucuronate (Form A)]: the gravimetric moisture sorption result in data set [1] is given as “about 1.4 % (by weight)”.

For the compound `COC(=O)c1ccc2c(c1)NC(=O)/C2=C(\Nc1ccc(N(C)C(=O)CN2CCN(C)CC2)cc1)c1ccccc1.Cl` [Compound 1 Hydrochloride (Form B)], the gravimetric moisture sorption result in data set [1] is on record as “about 2.9 % (by weight)”.

Regarding `COC[C@@]1(O)CC[C@@]2(C)[C@@H](CC[C@@H]3[C@@H]2CC[C@]2(C)[C@@H](C(=O)Cn4ccnc4)CC[C@@H]32)C1.O=C(O)CC(O)(CC(=O)O)C(=O)O` [Compound 1 Citrate (Form B)], the gravimetric moisture sorption entry in data set [1] is recorded as “about 2.8 % (by weight)”. The Final purity in data set [2] (40° C./75% RH) was found to be 98.3; in data set [2] (60° C.) it was 97.7; in data set [3] (1.2 million lux-hrs) it was 99.3; in data set [3] (Dark control), 99.1. Moreover, the XRPD pattern result in data set [2] (40° C./75% RH), in data set [2] (60° C.), in data set [3] (1.2 million lux-hrs) and in data set [3] (Dark control) was “Form B” each time.

Take `COC[C@@]1(O)CC[C@@]2(C)[C@@H](CC[C@@H]3[C@@H]2CC[C@]2(C)[C@@H](C(=O)Cn4ccnc4)CC[C@@H]32)C1.O=C(O)CC(O)(CC(=O)O)C(=O)O` [Compound 1 Citrate (Form A)]: the gravimetric moisture sorption entry in data set [1] is given as “about 3.6 % (by weight)”. For the same compound, the Final purity is on record as 99.4 in data set [2] (40° C./75% RH), 99.5 in data set [2] (60° C.), 99.5 in data set [3] (1.2 million lux-hrs) and 99.5 in data set [3] (Dark control). The XRPD pattern entry in data set [2] (40° C./75% RH), in data set [2] (60° C.), in data set [3] (1.2 million lux-hrs) and in data set [3] (Dark control) was “Form A” in each case.

As for `COC[C@@]1(O)CC[C@@]2(C)[C@@H](CC[C@@H]3[C@@H]2CC[C@]2(C)[C@@H](C(=O)Cn4ccnc4)CC[C@@H]32)C1.O=C(O)C(O)C(O)C(=O)O` [Compound 1 L(+)-Tartrate (Form A)], the gravimetric moisture sorption result in data set [1] is “about 1.6 % (by weight)”.

As to `COCC1(O)CCC2(C)C(CCC3C2CCC2(C)C(C(=O)Cn4ccnc4)CCC32)C1.O=C1OC(C(O)CO)C(O)=C1O` (stereo not drawn) [Compound 1 Ascorbate (Form A)], the gravimetric moisture sorption result in data set [1] is reported as “about 5.7 % (by weight)”.

As to `COC[C@@]1(O)CC[C@@]2(C)[C@@H](CC[C@@H]3[C@@H]2CC[C@]2(C)[C@@H](C(=O)Cn4ccnc4)CC[C@@H]32)C1.O=S(=O)(O)c1ccccc1` [Compound 1 Besylate (Form A)], the gravimetric moisture sorption result in data set [1] is on record as “about 4.0 % (by weight)”.

For the compound `COCC1(O)CCC2(C)C(CCC3C2CCC2(C)C(C(=O)Cn4ccnc4)CCC32)C1.O=P(O)(O)O` (stereo not drawn) [Compound 1 Phosphate (Form A)], the gravimetric moisture sorption entry in data set [1] is “about 2.1 % (by weight)”.

Consider `COCC1(O)CCC2(C)C(CCC3C2CCC2(C)C(C(=O)Cn4ccnc4)CCC32)C1.O=C(O)CC(O)C(=O)O` [Compound 1 L-Malate (Form A)], for which the gravimetric moisture sorption result in data set [1] is listed as “about 2.0 % (by weight)”.

For the compound `COCC1(O)CCC2(C)C(CCC3C2CCC2(C)C(C(=O)Cn4ccnc4)CCC32)C1.Cc1ccc(S(=O)(=O)O)cc1` (stereo not drawn) [Compound 1 Tosylate (Form A)], the gravimetric moisture sorption result in data set [1] is given as “about 1.5 % (by weight)”.

As to `COCC1(O)CCC2(C)C(CCC3C2CCC2(C)C(C(=O)Cn4ccnc4)CCC32)C1.O=C(O)C(Cl)Cl` (stereo not drawn) [Compound 1 Dichloroacetate (Form A)], the gravimetric moisture sorption entry in data set [1] is “about 1.8 % (by weight)”.

For `COCC1(O)CCC2(C)C(CCC3C2CCC2(C)C(C(=O)Cn4ccnc4)CCC32)C1.O=C(O)c1ccc2ccccc2c1O` (stereo not drawn), the gravimetric moisture sorption entry in data set [1] was “about 4.6 % (by weight)”.

`COC(=O)c1ccc2c(c1)NC(=O)/C2=C(\Nc1ccc(N(C)C(=O)CN2CCN(C)CC2)cc1)c1ccccc1.CS(=O)(=O)O` [Compound 1 Mesylate (Form A)]: the gravimetric moisture sorption result in data set [1] was “about 3.4 % (by weight)”.

In the case of `COCC1(O)CCC2(C)C(CCC3C2CCC2(C)C(C(=O)Cn4ccnc4)CCC32)C1.O=C(O)C(O)C(O)C(=O)O` (stereo not drawn) [Compound 1 L(+)-Tartrate (Form B)], in data set [1], the gravimetric moisture sorption result is reported as “about 1.7 % (by weight)”.

As for `COC[C@@]1(O)CC[C@@]2(C)[C@@H](CC[C@@H]3[C@@H]2CC[C@]2(C)[C@@H](C(=O)Cn4ccnc4)CC[C@@H]32)C1.O=S(=O)(O)CCO` [Compound 1 Isethionate (Form A)], the gravimetric moisture sorption result in data set [1] is on record as “about 4.9 % (by weight)”.

For `COC[C@@]1(O)CC[C@@]2(C)[C@@H](CC[C@@H]3[C@@H]2CC[C@]2(C)[C@@H](C(=O)Cn4ccnc4)CC[C@@H]32)C1.O=S(=O)(O)c1ccc2ccccc2c1` [Compound 1 Napsylate (Form A)], in data set [1], the gravimetric moisture sorption result was “about 3.9 % (by weight)”.

In the case of `COC[C@@]1(O)CC[C@@]2(C)[C@@H](CC[C@@H]3[C@@H]2CC[C@]2(C)[C@@H](C(=O)Cn4ccnc4)CC[C@@H]32)C1.O=S(=O)(O)O` [Compound 1 Sulfate (Form A)], the gravimetric moisture sorption result in data set [1] is given as “about 6.2 % (by weight)”.

As for `COCC1(O)CCC2(C)C(CCC3C2CCC2(C)C(C(=O)Cn4ccnc4)CCC32)C1.Nc1ccc(C(=O)O)c(O)c1` (stereo not drawn) [Compound 1 P-Aminosalicylate (Form A)], the gravimetric moisture sorption result in data set [1] is “about 4.0 % (by weight)”.

As for `COC[C@@]1(O)CC[C@@]2(C)[C@@H](CC[C@@H]3[C@@H]2CC[C@]2(C)[C@@H](C(=O)Cn4ccnc4)CC[C@@H]32)C1.O=S(=O)(O)NC1CCCCC1` [Compound 1 Cyclamate (Form A)], the gravimetric moisture sorption entry in data set [1] is “about 7.3 % (by weight)”.

Take `COC[C@@]1(O)CC[C@@]2(C)[C@@H](CC[C@@H]3[C@@H]2CC[C@]2(C)[C@@H](C(=O)Cn4ccnc4)CC[C@@H]32)C1` [Compound 1, 3α-Hydroxy-3β-methoxymethyl-21-(1′-imidazolyl)-5α-pregnan-20-one]: the Final purity in data set [2] (40° C./75% RH) is 98.2 and 99.1 and 98.23; in data set [2] (60° C.) it was 98.2 and 99.3 and 98.15; in data set [3] (1.2 million lux-hrs) it was 97.9 and 99.2 and 97.92; in data set [3] (Dark control) it was 98.3 and 99.1. In addition, the XRPD pattern result in data set [2] (40° C./75% RH), in data set [2] (60° C.), in data set [3] (1.2 million lux-hrs) and in data set [3] (Dark control) was “Pattern A” throughout. Moreover, the XRPD patterns result in data set [2] (40° C./75% RH), in data set [2] (60° C.), in data set [3] (1.2 million lux-hrs) and in data set [3] (Dark control) was “Pattern A” each time.

For the compound `COCC1(O)CCC2(C)C(CCC3C2CCC2(C)C(C(=O)Cn4ccnc4)CCC32)C1.Nc1ccc(C(=O)O)c(O)c1` (stereo not drawn) [P-aminosalicylate (Form A)], the Final purity worked out at 97.0 in data set [2] (40° C./75% RH), 91.5 in data set [2] (60° C.), 95.7 in data set [3] (1.2 million lux-hrs) and 95.8 in data set [3] (Dark control). In addition, the XRPD patterns entry in data set [2] (40° C./75% RH), in data set [2] (60° C.), in data set [3] (1.2 million lux-hrs) and in data set [3] (Dark control) was “Form A” each time.

In the case of `COCC1(O)CCC2(C)C(CCC3C2CCC2(C)C(C(=O)Cn4ccnc4)CCC32)C1.O=S(=O)(O)c1ccc2ccccc2c1` (stereo not drawn) [Napsylate (Form A)], the Final purity in data set [2] (40° C./75% RH) is given as 99.1; in data set [2] (60° C.), 99.1; in data set [3] (1.2 million lux-hrs) it was 99.0; in data set [3] (Dark control), 99.1. Besides, the XRPD patterns result in data set [2] (40° C./75% RH), in data set [2] (60° C.), in data set [3] (1.2 million lux-hrs) and in data set [3] (Dark control) was “Form A” each time.

Consider `COC(=O)c1ccc2c(c1)NC(=O)/C2=C(\Nc1ccc(N(C)C(=O)CN2CCN(C)CC2)cc1)c1ccccc1.Cl` [Compound 1 Hydrochloride (Form C)], for which the gravimetric moisture sorption result in data set [1] is “about 0.7 % (by weight)”.

For `CCS(=O)(=O)O.COCC1(O)CCC2(C)C(CCC3C2CCC2(C)C(C(=O)Cn4ccnc4)CCC32)C1` (stereo not drawn) [Compound 1 Ethanesulfonate (Form A)], the gravimetric moisture sorption result in data set [1] is given as “about 1.4 % (by weight)”.

Consider `CCS(=O)(=O)O.COCC1(O)CCC2(C)C(CCC3C2CCC2(C)C(C(=O)Cn4ccnc4)CCC32)C1` (stereo not drawn) [Ethanesulfonate (Form A)], for which the Final purity in data set [2] (40° C./75% RH) turned out to be 98.0; in data set [2] (60° C.), 98.2; in data set [3] (1.2 million lux-hrs), 97.7; in data set [3] (Dark control) it was 97.4. Further, the XRPD patterns entry in data set [2] (40° C./75% RH), in data set [2] (60° C.), in data set [3] (1.2 million lux-hrs) and in data set [3] (Dark control) was “Form A” throughout.

With `COC[C@@]1(O)CC[C@@]2(C)[C@@H](CC[C@@H]3[C@@H]2CC[C@]2(C)[C@@H](C(=O)Cn4ccnc4)CC[C@@H]32)C1.O=S(=O)(O)O` [Sulfate (Form A)], the Final purity in data set [2] (40° C./75% RH) was found to be 97.5; in data set [2] (60° C.), 96.2; in data set [3] (1.2 million lux-hrs), 97.1; in data set [3] (Dark control) it was 97.6. Further, the XRPD patterns result in data set [2] (40° C./75% RH), in data set [2] (60° C.), in data set [3] (1.2 million lux-hrs) and in data set [3] (Dark control) was “Form A” throughout.
